Common to all, as to assay: relative viability (nuclei count vs DMSO), 5 days (fraction); higher = more cells survive
Compound in test [1]: C1COCCN1C2=NC(=NC3=C2OC4=C3C=CC=N4)C5=CC(=CC=C5)NC(=O)C6=CN=C(C=C6)N + Cc1nc(Nc2ncc(C(=O)Nc3c(C)cccc3Cl)s2)cc(N2CCN(CCO)CC2)n1 [Dasatinib] (partner 0.075 µM)
Summed up:
(§1)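 Lung cancer cell lines in 1536-well plates got either a single drug or a fixed anchor-drug dose together with five library-drug doses (not always all listed) in √10 steps, by pin tool, on the day after seeding. Nuclei were counted after 5 days, and relative viability is the treated-to-vehicle ratio of nuclei counts. Values are medians of duplicate plates.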

Compound in the test “SGI-1776 + Tozasertib”: CN1CCC(CNc2ccc3ncc(-c4cccc(OC(F)(F)F)c4)n3n2)CC1 [SGI-1776] + Cc1cc(Nc2cc(N3CCN(C)CC3)nc(Sc3ccc(NC(=O)C4CC4)cc3)n2)n[nH]1 [Tozasertib] (partner 0.1 µM)
The gist of the method: as §1

Compound in the test “SGI-1776 + Olaparib”: CN1CCC(CNc2ccc3ncc(-c4cccc(OC(F)(F)F)c4)n3n2)CC1 [SGI-1776] + O=C(c1cc(Cc2n[nH]c(=O)c3ccccc23)ccc1F)N1CCN(C(=O)C2CC2)CC1 [Olaparib] (partner 8 µM)
The gist of the method: as §1

Compound in the test “SGI-1776 + Vorinostat”: CN1CCC(CNc2ccc3ncc(-c4cccc(OC(F)(F)F)c4)n3n2)CC1 [SGI-1776] + O=C(CCCCCCC(=O)Nc1ccccc1)NO [Vorinostat] (partner 1 µM)
The gist of the method: as §1

Take UMC-11: the relative viability in test [1] (first compound 0.02 µM) was 0.454; in test [1] (first compound 0.06325 µM) it was 0.519; in test [1] (first compound 0.2 µM) it was 0.514; in test [1] (first compound 0.6325 µM), 0.527; in test [1] (first compound 2 µM) it was 0.266; with SGI-1776 + Tozasertib (first compound 0.08 µM), 0.21. The relative viability with SGI-1776 + Tozasertib (first compound 0.8 µM) stood at 0.194; with SGI-1776 + Tozasertib (first compound 2.53 µM) it was 0.208; with SGI-1776 + Tozasertib (first compound 8 µM), 0.197; with SGI-1776 + Olaparib (first compound 0.08 µM), 0.337; with SGI-1776 + Olaparib (first compound 0.8 µM), 0.433; with SGI-1776 + Olaparib (first compound 2.53 µM) it was 0.289. The relative viability with SGI-1776 + Olaparib (first compound 8 µM) came out at 0.206; with SGI-1776 + Vorinostat (first compound 0.08 µM), 0.404; with SGI-1776 + Vorinostat (first compound 0.8 µM), 0.378; in the test with SGI-1776 + Vorinostat (first compound 2.53 µM), 0.357; with SGI-1776 + Vorinostat (first compound 8 µM) it was 0.228.

The record behind these values is the supplement of paper PMC10307832.
